Source: US20260355196A1, “INHIBITORS AND DEGRADERS OF PIP4K PROTEIN” (Larkspur Biosciences, Inc., priority 2023, published 2026)

biological target: T1, PIP4K2C (Homo sapiens, UniProt Q8TBX8); assay: HiBiT PIP4K2C degradation assay in MOLT-4 cells (endogenous PIP4K2C C-terminally tagged with HiBiT); type: cell-based; design: untagged in primary human PBMCs and monocyte-derived dendritic cells; details: 6 hours of incubation time, rather than 24 hours; MOLT-4, top concentration 10 micromolar; read-out: HiBIT-degradation MOLT4 PIP4k2C DC50 (6 hours, marked *)
T1 sequence (Q8TBX8 1-421): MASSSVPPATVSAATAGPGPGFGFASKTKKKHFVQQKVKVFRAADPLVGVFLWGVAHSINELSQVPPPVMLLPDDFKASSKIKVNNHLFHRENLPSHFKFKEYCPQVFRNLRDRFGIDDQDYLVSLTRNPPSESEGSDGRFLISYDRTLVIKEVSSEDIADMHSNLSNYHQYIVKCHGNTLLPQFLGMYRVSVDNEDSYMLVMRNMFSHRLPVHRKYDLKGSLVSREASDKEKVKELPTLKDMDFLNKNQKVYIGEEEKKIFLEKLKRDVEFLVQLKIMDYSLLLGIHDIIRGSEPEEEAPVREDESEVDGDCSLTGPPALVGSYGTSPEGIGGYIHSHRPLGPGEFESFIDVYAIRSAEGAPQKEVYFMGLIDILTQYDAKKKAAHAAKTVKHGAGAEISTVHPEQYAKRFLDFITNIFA
Method in brief: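 MOLT-4 knock-in line, HiBiT on PIP4K2C C-terminus; 22,500 cells/well; 10-pt 3-fold titration from 10 micromolar, n=2; 24 h or 6 h, 37 C, 5% CO2; Nano-Glo HiBiT lytic luminescence; DC50 via Hill equation.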

Row | DC50 [µM] | Structure (SMILES)
1 | < 0.5 | O=C1CCC(Nc2ccc(C3CCN([C@H]4CC[C@H](C(=O)N[C@H]5CC[C@H](Nc6ncc(F)c(-c7cccc(C8CC8)c7)n6)CC5)CC4)CC3)c(F)c2)C(=O)N1 (stereo partly drawn) [Compound 558, trans-(1r,4R)—N-((1r,4R)-4-((4-(3-cyclopropylphenyl)-5-fluoropyrimidin-2-yl)amino)cyclohexyl)-4-(4-(4-((2,6-dioxopiperidin-3-yl)amino)-2-fluorophenyl)piperidin-1-yl)cyclohexane-1-carboxamide]
2 | < 0.5 | O=C1CC[C@@H](Nc2ccc(C3CCN([C@H]4CC[C@H](C(=O)N[C@H]5CC[C@H](Nc6ncc(F)c(-c7cccc(-n8ccccc8=O)c7)n6)CC5)CC4)CC3)c(F)c2)C(=O)N1 [Compound 706, (1R,4R)-4-(4-(4-(((R)-2,6-dioxopiperidin-3-yl)amino)-2-fluorophenyl)piperidin-1-yl)-N-((1r,4R)-4-((5-fluoro-4-(3-(2-oxopyridin-1(2H)-yl)phenyl)pyrimidin-2-yl)amino)cyclohexyl)cyclohexane-1-carboxamide]
3 | < 0.5 | Cn1nc(C2CCC(=O)NC2=O)c2ccc(C3CCN(C[C@H]4CC[C@H](C(=O)N[C@H]5CC[C@H](Nc6ncc(F)c(-c7cccc(-n8ccccc8=O)c7)n6)CC5)CC4)CC3)cc21 (stereo partly drawn) [Compound 535, trans-(1r,4R)-4-((4-(3-(2,6-dioxopiperidin-3-yl)-1-methyl-1H-indazol-6-yl)piperidin-1-yl)methyl)-N-((1r,4R)-4-((5-fluoro-4-(3-(2-oxopyridin-1 (2H)-yl)phenyl)pyrimidin-2-yl)amino)cyclohexyl)cyclohexane-1-carboxamide]

The remaining lines, values behind:

Row | Structure (SMILES) | DC50 [µM]
4 | O=C1CC[C@@H](Nc2ccc(C3CCN([C@H]4CC[C@H](NC(=O)[C@H]5CC[C@H](Nc6ncc(F)c(-c7cccc(-n8ccccc8=O)c7)n6)CC5)CC4)CC3)c(F)c2)C(=O)N1 (single isomer, unassigned) [Compound 418] | < 0.5
5 | O=C1CCC(Nc2ccc(N3CCC(OC4CCN(C(=O)[C@H]5CC[C@H](Nc6ncc(F)c(-c7cccc(N8CCCCC8=O)c7)n6)CC5)CC4)CC3)c(F)c2)C(=O)N1 (stereo partly drawn) [Compound 413, trans-3-((3-fluoro-4-(4-((1-(4-((5-fluoro-4-(3-(2-oxopiperidin-1-yl)phenyl)pyrimidin-2-yl)amino)cyclohexane-1-carbonyl)piperidin-4-yl)oxy)piperidin-1-yl)phenyl)amino)piperidine-2,6-dione] | < 0.5
6 | O=C1CCC(Nc2ccc(N3CCC(N4CCC(NC(=O)[C@H]5CC[C@H](Nc6ncc(F)c(-c7cccc(N8CCOCC8=O)c7)n6)CC5)CC4)CC3)c(F)c2)C(=O)N1 (stereo partly drawn) [Compound 532, trans-N-(1′-(4-((2,6-dioxopiperidin-3-yl)amino)-2-fluorophenyl)-[1,4′-bipiperidin]-4-yl)-4-((5-fluoro-4-(3-(3-oxomorpholino)phenyl)pyrimidin-2-yl)amino)cyclohexane-1-carboxamide] | < 0.5

same assay, conditions: 24 hours incubation, MOLT-4, top concentration 10 micromolar; read-out: HiBIT-degradation MOLT4 PIP4k2C 24 hours DC50

Row | DC50 [µM] | Structure (SMILES)
7 | < 0.5 | O=C1CCC(N2Cc3cc(OC4CCN(C5CCN(CC(=O)N6CCC(Nc7ncc(Cl)c(-c8cccc(-c9ccccc9)c8)n7)CC6)CC5)CC4)ccc3C2=O)C(=O)N1 (centres unmarked) [Compound 87, 3-(5-((1′-(2-(4-((4-([1,1′-biphenyl]-3-yl)-5-chloropyrimidin-2-yl)amino)piperidin-1-yl)-2-oxoethyl)-[1,4′-bipiperidin]-4-yl)oxy)-1-oxoisoindolin-2-yl)piperidine-2,6-dione]
8 | < 0.5 | O=C1CCC(n2c(=O)oc3cc(C4CCN([C@H]5CC[C@H](CNC(=O)[C@H]6CCC[C@@H](Nc7ncc(F)c(-c8cccc(-n9ccccc9=O)c8)n7)C6)CC5)CC4)ccc32)C(=O)N1 (relative stereo) [Compound 349, cis-trans-N-((4-(4-(3-(2,6-dioxopiperidin-3-yl)-2-oxo-2,3-dihydrobenzo[d]oxazol-6-yl)piperidin-1-yl)cyclohexyl)methyl)-3-((5-fluoro-4-(3-(2-oxopyridin-1(2H)-yl)phenyl)pyrimidin-2-yl)amino)cyclohexane-1-carboxamide]
